What was measured:
Format in all cases: cell-based
[1] = target: T1, vanilloid receptor 1 (VR1/TRPV1 receptor) (Homo sapiens, UniProt Q8NER1); experiment: FLIPR Ca2+ influx assay with CHO K1 cells transfected with the human VR1 gene, capsaicin stimulus; conditions: Cap = capsaicin (100 nM), Ki from IC50 by Cheng-Prusoff, read-out: Ki (human being) [nM] Cap
T1 construct: expressed in transfected cells; host or cells: CHO K1 cells (ECACC), stably transfected
Procedure: Furthermore, preference may be given to compounds according to the invention of general formula (I) that cause a 50 percent displacement of capsaicin, which is present at a concentration of 100 nM, in a FLIPR assay with CHO K1 cells which were transfected with the human VR1 gene at a concentration of less than 2,000 nM, preferably less than 1,000 nM, particularly preferably less than 300 nM, most particularly preferably less than 100 nM, even more preferably less than 75 nM, additionally preferably less than 50 nM, most preferably less than 10 nM. In the process, the Ca^2+ influx is quantified in the FLIPR assay with the aid of a Ca^2+-sensitive dye (type Fluo-4, Molecular Probes Europe BV, Leiden, the Netherlands) in a fluorescent imaging plate reader (FLIPR, Molecular Devices, Sunnyvale, USA), as described hereinafter. The agonistic or antagonistic effect of the substances to be tested on the vanilloid receptor 1 (VR1) can also be determined using the following assay. In this assay, the influx of Ca^2+ through the channel is quantified with the aid of a Ca^2+-sensitive dye (type Fluo-4, Molecular Probes Europe BV, Leiden, the Netherlands) in a fluorescent imaging plate reader (FLIPR, Molecular Devices, Sunnyvale, USA). Chinese hamster ovary cells (CHO K1 cells, European Collection of Cell Cultures (ECACC) United Kingdom) are stably transfected with the VR1 gene. For functional testing, these cells are plated out on poly-D-lysine-coated black 96-well plates having a clear base (BD Biosciences, Heidelberg, Germany) at a density of 25,000 cells/well. The cells are incubated overnight at 37° C. and 5% CO2 in a culture medium (Ham's F12 nutrient mixture, 10% by volume of FCS (foetal calf serum), 18 μg/ml of L-proline). The next day the cells are incubated with Fluo-4 (Fluo-4 2 μM, 0.01% by volume of Pluronic F127, Molecular Probes in HBSS (Hank's buffered saline solution), Gibco Invitrogen GmbH, Karlsruhe, Germany) for 30 minutes at 37° C. Subsequently, the plates are washed three times with HBSS buffer and after further incubation for 15 minutes at RT used for Ca^2+ measurement in a FLIPR assay. The Ca^2+-dependent fluorescence is measured before and after the addition of the substances to be tested (λex wavelength=488 nm, λem=540 nm). Quantification is carried out by measuring the highest fluorescence intensity (FC, fluorescence counts) over time. The FLIPR protocol consists of 2 substance additions. First the compounds to be tested (10 μM) are pipetted onto the cells and the Ca^2+ influx is compared with the control (capsaicin 10 μM) (% activation based on the Ca^2+ signal after the addition of 10 μM of capsaicin). After 5 minutes' incubation, 100 nM of capsaicin are applied and the Ca^2+ influx is also determined. Desensitising agonists and antagonists led to suppression of the Ca^2+ influx. The % inhibition is calculated compared to the maximum achievable inhibition with 10 μM of capsaicin. Starting from the percentage displacement caused by different concentrations of the compounds to be tested of general formula I, IC50 inhibitory concentrations which cause a 50-percent displacement of capsaicin were calculated. K, values for the test substances were obtained by conversion by means of the Cheng-Prusoff equation (Cheng, Prusoff; Biochem. Pharmacol. 22, 3099-3108, 1973). The affinity of the compounds according to the invention for the vanilloid receptor 1 (VR1/TRPV1 receptor) was determined as described hereinbefore (pharmacological methods I and II respectively). The compounds according to the invention of the above-indicated formula (I) display outstanding affinity to the VR1/TRPV1 receptor (Table 1.).

[2] = target: T2, vanilloid receptor 1 (VR1/TRPV1 receptor) (Mus musculus, UniProt Q704Y3); experiment: FLIPR Ca2+ influx assay on vanilloid receptor 1, capsaicin stimulus (mouse); conditions: Cap = capsaicin, Ki from IC50 by Cheng-Prusoff
T2 construct: expressed in transfected cells; host or cells: CHO K1 cells (inferred: method II; method I is described for rat DRG neurons only)
T2 sequence (Q704Y3 whole entry): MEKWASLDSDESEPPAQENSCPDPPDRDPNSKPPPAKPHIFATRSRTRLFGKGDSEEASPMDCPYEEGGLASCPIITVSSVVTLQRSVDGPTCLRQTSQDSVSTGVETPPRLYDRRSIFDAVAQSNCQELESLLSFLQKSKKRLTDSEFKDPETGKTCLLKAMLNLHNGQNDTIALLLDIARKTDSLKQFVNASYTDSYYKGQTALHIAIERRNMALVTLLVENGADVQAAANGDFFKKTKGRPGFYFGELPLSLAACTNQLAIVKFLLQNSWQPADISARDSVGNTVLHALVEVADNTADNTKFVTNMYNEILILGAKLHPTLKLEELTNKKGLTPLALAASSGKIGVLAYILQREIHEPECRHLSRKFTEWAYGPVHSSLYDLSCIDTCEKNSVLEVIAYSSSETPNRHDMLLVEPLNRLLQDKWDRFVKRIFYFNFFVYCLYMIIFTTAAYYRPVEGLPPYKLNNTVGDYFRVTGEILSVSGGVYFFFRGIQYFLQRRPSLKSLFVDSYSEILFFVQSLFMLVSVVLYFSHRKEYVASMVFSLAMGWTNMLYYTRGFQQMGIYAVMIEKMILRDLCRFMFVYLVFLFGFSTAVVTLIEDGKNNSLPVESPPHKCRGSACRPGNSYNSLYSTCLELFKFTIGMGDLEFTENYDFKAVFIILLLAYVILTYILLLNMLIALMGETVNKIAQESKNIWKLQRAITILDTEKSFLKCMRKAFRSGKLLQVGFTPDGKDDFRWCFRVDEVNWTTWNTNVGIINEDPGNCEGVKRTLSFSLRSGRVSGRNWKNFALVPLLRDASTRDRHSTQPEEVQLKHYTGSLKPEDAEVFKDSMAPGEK
Text: The agonistic or antagonistic effect of the substances to be tested on the vanilloid receptor 1 (VR1) can also be determined using the following assay. In this assay, the influx of Ca^2+ through the channel is quantified with the aid of a Ca^2+-sensitive dye (type Fluo-4, Molecular Probes Europe BV, Leiden, the Netherlands) in a fluorescent imaging plate reader (FLIPR, Molecular Devices, Sunnyvale, USA).
Chinese hamster ovary cells (CHO K1 cells, European Collection of Cell Cultures (ECACC) United Kingdom) are stably transfected with the VR1 gene. […] The Ca^2+-dependent fluorescence is measured before and after the addition of the substances to be tested (λex wavelength=488 nm, λem=540 nm). Quantification is carried out by measuring the highest fluorescence intensity (FC, fluorescence counts) over time.
The FLIPR protocol consists of 2 substance additions. […] After 5 minutes' incubation, 100 nM of capsaicin are applied and the Ca^2+ influx is also determined. […]
Starting from the percentage displacement caused by different concentrations of the compounds to be tested of general formula I, IC50 inhibitory concentrations which cause a 50-percent displacement of capsaicin were calculated. […]
The affinity of the compounds according to the invention for the vanilloid receptor 1 (VR1/TRPV1 receptor) was determined as described hereinbefore (pharmacological methods I and II respectively). […]

[3] = target: T1, vanilloid receptor 1 (VR1/TRPV1 receptor); experiment: Functional test on vanilloid receptor 1, 45° C. stimulus (human); conditions: for IC50: read-out: IC50 (human being) [nM], 45° C.
[4] = target: T1, vanilloid receptor 1 (VR1/TRPV1 receptor); experiment: FLIPR Ca2+ influx assay with CHO K1 cells transfected with the human VR1 gene, capsaicin stimulus; conditions: read-out: inhibition (as a percentage), human being, Cap; for inhibition at 5 µM: @ 5 μM compound

T1 sequence (Q8NER1 whole entry): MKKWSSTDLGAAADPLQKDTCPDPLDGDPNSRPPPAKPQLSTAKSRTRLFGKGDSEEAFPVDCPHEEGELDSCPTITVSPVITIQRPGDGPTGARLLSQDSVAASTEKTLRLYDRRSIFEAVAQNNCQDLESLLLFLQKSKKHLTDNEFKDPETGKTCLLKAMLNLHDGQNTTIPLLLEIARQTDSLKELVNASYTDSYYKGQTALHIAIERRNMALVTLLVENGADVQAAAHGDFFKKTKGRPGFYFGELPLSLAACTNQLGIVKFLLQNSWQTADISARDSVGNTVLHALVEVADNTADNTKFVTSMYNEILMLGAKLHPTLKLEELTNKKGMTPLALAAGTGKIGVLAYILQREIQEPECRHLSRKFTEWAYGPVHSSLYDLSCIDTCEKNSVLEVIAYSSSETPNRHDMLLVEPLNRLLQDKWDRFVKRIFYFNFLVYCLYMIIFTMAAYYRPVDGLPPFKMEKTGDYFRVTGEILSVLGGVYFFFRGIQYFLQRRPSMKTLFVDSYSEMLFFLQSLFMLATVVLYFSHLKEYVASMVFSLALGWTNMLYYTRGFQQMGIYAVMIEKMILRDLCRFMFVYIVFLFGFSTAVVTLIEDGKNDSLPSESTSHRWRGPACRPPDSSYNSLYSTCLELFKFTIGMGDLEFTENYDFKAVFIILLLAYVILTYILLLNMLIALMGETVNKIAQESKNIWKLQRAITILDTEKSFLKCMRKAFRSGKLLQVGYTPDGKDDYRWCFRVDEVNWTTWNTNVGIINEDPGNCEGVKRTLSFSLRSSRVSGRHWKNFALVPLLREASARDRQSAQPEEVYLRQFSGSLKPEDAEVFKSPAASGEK

| Molecule | Ki [1] | other results |
| --- | --- | --- |
| CC(C(=O)NCc1cc(C(F)(F)F)nn1-c1ccccc1)c1cn(C)c2ccccc12 (stereo not shown) [Example 1, 2-(1-methyl-1H-indol-3-yl)-N-((1-phenyl-3-(trifluoromethyl)-1H-pyrazol-5-yl)methyl)propanamide] | 42.1 nM |  |
| CC(C(=O)NCc1cc(C(C)(C)C)nn1-c1cccc(Cl)c1)c1cn(C)c2ccccc12 (stereo not shown) [Example 2, N-((3-tert-butyl-1-(3-chlorophenyl)-1H-pyrazol-5-yl)methyl)-2-(1-methyl-1H-indol-3-yl)propanamide] | 33.6 nM |  |
| COc1cccc(-n2nc(C(F)(F)F)cc2CNC(=O)C(C)c2cn(C)c3ccccc23)c1 (stereo not shown) [Example 3, N-((1-(3-methoxyphenyl)-3-(trifluoromethyl)-1H-pyrazol-5-yl)methyl)-2-(1-methyl-1H-indol-3-yl)propanamide] | 49.8 nM |  |
| Cc1cccc(-n2nc(C(F)(F)F)cc2CNC(=O)C(C)c2cn(C)c3ccc(O)cc23)c1 (stereo not shown) [Example 5, 2-(5-hydroxy-1-methyl-1H-indol-3-yl)-N-((1-m-tolyl-3-(trifluoromethyl)-1H-pyrazol-5-yl)methyl)propanamide] | 0.6 nM | Ki [2]: 38.5 nM |
| CC(C(=O)NCc1cc(C(C)(C)C)nn1-c1ccccn1)c1cn(C)c2ccc(O)cc12 (stereo not shown) [Example 6, N-((3-tert-butyl-1-(pyridin-2-yl)-1H-pyrazol-5-yl)methyl)-2-(5-hydroxy-1-methyl-1H-indol-3-yl)propanamide] | 56.8 nM |  |
| Cc1c(C(F)(F)F)nn(-c2cccc(Cl)c2)c1CNC(=O)C(C)c1cn(C)c2ccc(O)cc12 (stereo not shown) [Example 7, N-((1-(3-chlorophenyl)-4-methyl-3-(trifluoromethyl)-1H-pyrazol-5-yl)methyl)-2-(5-hydroxy-1-methyl-1H-indol-3-yl)propanamide] | 0.4 nM | inhibition at 2.5 µM ([3]; @ 2.5 μM compound, read-out: inhibition (as a percentage), human being, 45° C.): 36% |
| CC(C(=O)NCc1cc(C(F)(F)F)nn1-c1cccc(Cl)c1)c1cn(C)c2ccccc12 (stereo not shown) [Example 8, N-((1-(3-chlorophenyl)-3-(trifluoromethyl)-1H-pyrazol-5-yl)methyl)-2-(1-methyl-1H-indol-3-yl)propanamide] | 6.4 nM | IC50 [3]: 924 nM |
| Cn1cc(CC(=O)NCc2cc(C(F)(F)F)nn2-c2cccc(Cl)c2)c2cc(O)ccc21 [Example 9, N-((1-(3-chlorophenyl)-3-(trifluoromethyl)-1H-pyrazol-5-yl)methyl)-2-(5-hydroxy-1-methyl-1H-indol-3-yl)acetamide] | 0.25 nM | IC50 [3]: 1730 nM |
| CC(C(=O)NCc1cc(C(C)(C)C)nn1-c1ccc(F)c(Cl)c1)c1cn(C)c2ccc(O)cc12 (stereo not shown) [Example 11, N-((3-tert-butyl-1-(3-chloro-4-fluorophenyl)-1H-pyrazol-5-yl)methyl)-2-(5-hydroxy-1-methyl-1H-indol-3-yl)propanamide] | 0.7 nM | IC50 [3]: 39 nM |
| CC(C(=O)NCc1cc(C2CC2)nn1-c1cccc(Cl)c1)c1cn(C)c2ccc(O)cc12 (stereo not shown) [Example 12, N-((1-(3-chlorophenyl)-3-cyclopropyl-1H-pyrazol-5-yl)methyl)-2-(5-hydroxy-1-methyl-1H-indol-3-yl)propanamide] | 1.1 nM | IC50 [3]: 95.8 nM |
| COc1ccc2c(c1)c(CC(=O)NCc1cc(C(C)(C)C)nn1-c1cccc(Cl)c1)cn2C [Example 13, N-((3-tert-butyl-1-(3-chlorophenyl)-1H-pyrazol-5-yl)methyl)-2-(5-methoxy-1-methyl-1H-indol-3-yl)acetamide] | 33.3 nM |  |
| COc1ccc2c(c1)c(C(C)C(=O)NCc1cc(C(C)(C)C)nn1-c1cccc(Cl)c1)cn2C (stereo not shown) [Example 14, N-((3-tert-butyl-1-(3-chlorophenyl)-1H-pyrazol-5-yl)methyl)-2-(5-methoxy-1-methyl-1H-indol-3-yl)propanamide] | 48.1 nM |  |
| CC(C(=O)NCc1cc(C(F)(F)F)nn1CC1CC1)c1cn(C)c2ccccc12 (stereo not shown) [Example 15, N-((1-(cyclopropylmethyl)-3-(trifluoromethyl)-1H-pyrazol-5-yl)methyl)-2-(1-methyl-1H-indol-3-yl)propanamide] |  | inhibition at 5 µM [4]: 14% |
| O=C(NCc1cc(C(F)(F)F)nn1-c1cccc(Cl)c1)Nc1n[nH]c2ccccc12 [Example 16, 1-((1-(3-chlorophenyl)-3-(trifluoromethyl)-1H-pyrazol-5-yl)methyl)-3-(1H-indazol-3-yl)urea] |  | inhibition at 5 µM [4]: 24% |
| Cn1nc(NC(=O)NCc2cc(C(F)(F)F)nn2-c2cccc(Cl)c2)c2cccnc21 [Example 17, 1-((1-(3-chlorophenyl)-3-(trifluoromethyl)-1H-pyrazol-5-yl)methyl)-3-(1-methyl-1H-pyrazolo[3,4-b]pyridin-3-yl)urea] |  | inhibition at 1 µM ([4]; @ 1 μM compound): 4%; inhibition at 5 µM [4]: 30% |
| Cn1cc(CC(=O)NCc2nc(C(C)(C)C)nn2-c2cccc(Cl)c2)c2cc(O)ccc21 [Example 18, N-((3-tert-butyl-1-(3-chlorophenyl)-1H-1,2,4-triazol-5-yl)methyl)-2-(5-hydroxy-1-methyl-1H-indol-3-yl)acetamide] | 70.9 nM |  |
| N-((1-cyclopentyl-3-(trifluoromethyl)-1H-pyrazol-5-yl)methyl)-2-(5-hydroxy-1-methyl-1H-indol-3-yl)propanamide [Example 4] | 4.8 nM | IC50 [3]: 92 nM |

Reference: patent publication US20120115903A1, “Substituted Heteroaromatic Carboxamide and Urea Compounds as Vanilloid Receptor Ligands” (Gruenenthal GmbH, priority 2010, published 2012)
